SMILES strings stand for the structures.

Broadly, the Ki is the dissociation constant of the complex between target and ligand, obtained from inhibition or displacement.

In this assay the target is Non-receptor tyrosine-protein kinase TYK2 (Homo sapiens, UniProt P29597). The experiment in a line: Reactions were incubated at 22° C. in 384-well polypropylene microtiter plates for 30 minutes and then stopped by addition of 25 μL of an EDTA containing solution (100 mM Hepes pH 7.2, 0.015% Brij-35, 150 mM EDTA), resulting in a final EDTA concentration of 50 mM. Ki values were then determined using the Morrison tight binding model. Morrison, J. F., Biochim. Biophys. Acta. 185:269-296 (1969); William, J. W. and Morrison, J. F., Meth. Enzymol., 63:437-467 (1979).
Sequence of Non-receptor tyrosine-protein kinase TYK2 (P29597 whole entry): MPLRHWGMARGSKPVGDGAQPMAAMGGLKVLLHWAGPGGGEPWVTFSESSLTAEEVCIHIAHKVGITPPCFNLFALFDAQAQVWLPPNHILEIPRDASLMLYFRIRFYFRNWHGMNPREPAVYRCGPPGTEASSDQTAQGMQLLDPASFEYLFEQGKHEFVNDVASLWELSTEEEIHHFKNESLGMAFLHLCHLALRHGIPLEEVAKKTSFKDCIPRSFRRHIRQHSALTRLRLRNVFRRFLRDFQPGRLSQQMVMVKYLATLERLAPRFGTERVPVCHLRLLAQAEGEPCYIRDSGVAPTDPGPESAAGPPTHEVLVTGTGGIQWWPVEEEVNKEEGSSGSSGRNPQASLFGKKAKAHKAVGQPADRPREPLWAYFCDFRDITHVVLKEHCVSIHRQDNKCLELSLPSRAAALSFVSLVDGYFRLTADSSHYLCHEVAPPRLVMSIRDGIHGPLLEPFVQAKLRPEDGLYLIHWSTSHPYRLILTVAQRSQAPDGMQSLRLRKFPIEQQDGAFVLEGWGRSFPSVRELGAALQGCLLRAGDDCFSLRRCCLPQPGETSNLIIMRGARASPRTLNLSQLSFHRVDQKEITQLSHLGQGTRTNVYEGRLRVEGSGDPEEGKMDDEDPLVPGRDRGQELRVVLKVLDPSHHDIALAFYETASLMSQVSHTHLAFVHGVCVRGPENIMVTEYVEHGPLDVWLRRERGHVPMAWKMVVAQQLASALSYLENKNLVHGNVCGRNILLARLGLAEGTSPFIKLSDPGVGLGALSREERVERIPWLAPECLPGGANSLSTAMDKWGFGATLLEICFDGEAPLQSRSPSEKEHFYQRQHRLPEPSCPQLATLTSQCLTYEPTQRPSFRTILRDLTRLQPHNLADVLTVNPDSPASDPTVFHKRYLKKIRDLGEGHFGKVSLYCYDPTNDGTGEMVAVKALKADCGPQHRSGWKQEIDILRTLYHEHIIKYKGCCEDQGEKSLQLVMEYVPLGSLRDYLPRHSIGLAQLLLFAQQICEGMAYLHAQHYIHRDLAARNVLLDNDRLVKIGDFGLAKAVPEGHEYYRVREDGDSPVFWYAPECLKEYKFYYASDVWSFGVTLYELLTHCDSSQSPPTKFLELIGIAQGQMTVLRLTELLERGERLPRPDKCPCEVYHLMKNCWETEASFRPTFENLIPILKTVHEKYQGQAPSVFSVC

The compound `COC(=O)Nc1nccc2nc(-c3c(Cl)cccc3Cl)sc12` showed a Ki of 0.0014 µM. Next, `OC1CN(c2cc(Nc3ncnc4nc(-c5c(Cl)cccc5Cl)sc34)ncn2)C1`: 0.087 µM.
